Data on 7 molecules can be found in patent publication US12077503B2, “Substituted cyclic amides and their use as herbicides” (FMC CORPORATION, priority 2015, dated 2024).

What all share (format): in vivo
In assay [1] the test system is barnyardgrass (Echinochloa crus-galli). Description: Test A postemergence. The conditions noted are these: Echinochloa crus-galli, post-emergence, 240 h, 125 g ai/ha, postemergence, visual injury rating after approximately 10 d; read-out: Barnyardgrass plant response rating (0 to 100 scale, 0 no effect, 100 complete control). An outline of the steps:
(§1)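 Seeded soil received test chemicals as a preemergence directed spray, and seedlings at one to two leaves, 2–10 cm tall, received them postemergence, in a non-phytotoxic, surfactant-containing solvent mixture. Pots were held in a greenhouse for approximately 10 d, then rated for injury from 0, no effect, to 100, complete control.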

Assay [2] relates to ragweed (common ragweed, Ambrosia elatior). The assay is described as follows: Test A postemergence. Particulars: Ambrosia artemisiifolia, post-emergence, 240 h, 125 g ai/ha, postemergence, visual injury rating after approximately 10 d; read-out: Ragweed plant response rating (0 to 100 scale, 0 no effect, 100 complete control). In short, it runs like this:
as §1

Assay [3] deals with blackgrass (Alopecurus myosuroides). Description: Test A postemergence. The conditions noted are these: Alopecurus myosuroides, post-emergence, 240 h, 125 g ai/ha, postemergence, visual injury rating after approximately 10 d; read-out: Blackgrass plant response rating (0 to 100 scale, 0 no effect, 100 complete control). An outline of the steps: as §1
In assay [4] the test system is Galium (catchweed bedstraw, Galium aparine). The assay is described as follows: Test A postemergence. The conditions noted are these: Galium, post-emergence, 240 h, 125 g ai/ha, postemergence, visual injury rating after approximately 10 d; read-out: Galium plant response rating (0 to 100 scale, 0 no effect, 100 complete control). An outline of the steps:
as §1

The subject of the next assay is corn (Zea mays). The assay is described as follows: Test A postemergence. The conditions noted are these: Zea mays, post-emergence, 240 h, 125 g ai/ha, postemergence, visual injury rating after approximately 10 d; read-out: Corn plant response rating (0 to 100 scale, 0 no effect, 100 complete control). An outline of the steps:
as §1

The subject of assay [5] is giant foxtail (Setaria faberii). Description: Test A postemergence. Particulars: Setaria faberi, post-emergence, 240 h, 125 g ai/ha, postemergence, visual injury rating after approximately 10 d; read-out: Foxtail, Giant plant response rating (0 to 100 scale, 0 no effect, 100 complete control). An outline of the steps:
as §1

Assay [6] has as its system ryegrass, Italian (Italian ryegrass, Lolium multiflorum). Description: Test A postemergence. The conditions noted are these: Lolium multiflorum, post-emergence, 240 h, 125 g ai/ha, postemergence, visual injury rating after approximately 10 d; read-out: Ryegrass, Italian plant response rating (0 to 100 scale, 0 no effect, 100 complete control). An outline of the steps: as §1

Assay [7] concerns pigweed (Amaranthus retroflexus). Description: Test A postemergence. The conditions noted are these: Amaranthus retroflexus, post-emergence, 240 h, 125 g ai/ha, postemergence, visual injury rating after approximately 10 d; read-out: Pigweed plant response rating (0 to 100 scale, 0 no effect, 100 complete control). An outline of the steps: as §1
The subject of the next assay is Kochia (Kochia scoparia). The assay is described as follows: Test A postemergence. The conditions noted are these: Bassia scoparia, post-emergence, 240 h, 125 g ai/ha, postemergence, visual injury rating after approximately 10 d; read-out: Kochia plant response rating (0 to 100 scale, 0 no effect, 100 complete control). In short, it runs like this:
as §1

Assay [8] concerns wheat (Triticum aestivum). The assay is described as follows: Test A postemergence. Particulars: Triticum aestivum, post-emergence, 240 h, 125 g ai/ha, postemergence, visual injury rating after approximately 10 d; read-out: Wheat plant response rating (0 to 100 scale, 0 no effect, 100 complete control). An outline of the steps:
as §1

Assay [9] relates to sedge, umbrella (small-flower umbrella sedge, Cyperus difformis). The assay is described as follows: Test B flooded paddy test. The conditions noted are these: Cyperus difformis, Flood, 250 g ai/ha; scale of 0 to 100 where 0 is no effect and 100 is complete control; read-out: Sedge, Umbrella plant response rating. An outline of the steps:
(§2)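 Flooding to 3 cm over soil accompanied treatment, which consisted of adding compound to the standing water around 2-leaf plants; depth was then maintained. Visual assessment versus controls followed at 13 to 15 d (scale 0–100, 0 meaning no effect).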

Assay [10] relates to barnyardgrass (Echinochloa crus-galli). The assay is described as follows: Test B flooded paddy test. Particulars: Echinochloa crus-galli, Flood, 250 g ai/ha; scale of 0 to 100 where 0 is no effect and 100 is complete control; read-out: Barnyardgrass plant response rating. An outline of the steps: as §2
The subject of a further assay is rice (Oryra sativa). The assay is described as follows: Test B flooded paddy test. Particulars: Oryza sativa, Flood, 250 g ai/ha; scale of 0 to 100 where 0 is no effect and 100 is complete control; read-out: Rice plant response rating. An outline of the steps: as §2
The test system of assay [11] is ducksalad (Heteranthera limosa). Description: Test B flooded paddy test. Particulars: Heteranthera limosa, Flood, 250 g ai/ha; scale of 0 to 100 where 0 is no effect and 100 is complete control; read-out: Ducksalad plant response rating. An outline of the steps:
as §2

The test system of assay [12] is giant foxtail (Setaria faberii). The assay is described as follows: Test A preemergence. The conditions noted are these: Setaria faberi, pre-emergence, 240 h; for pest or weed control at 125 g/ha: 125 g ai/ha, preemergence, 0 to 100 scale where 0 is no effect and 100 is complete control, read-out: Foxtail, Giant plant response rating; for pest or weed control at 500 g/ha: 500 g ai/ha, Preemergence, visual injury vs untreated controls after approximately 10 d, read-out: Foxtail, Giant plant response rating (0 to 100 scale where 0 is no effect and 100 is complete control). An outline of the steps:
as §1

Consider `CC(C)c1cccc([C@H]2CN(C)C(=O)[C@@H]2C(=O)Nc2ccccc2S(C)(=O)=O)c1` [Compound 820], for which the pest or weed control at 125 g/ha came out at 90% in assay [1]; 20% in [2]; 40% in assay [3]; 30% in [4]; 90% in [5]; 30% in assay [6]. The results for the pest or weed control at 125 g/ha (in [7]; in the assay on Kochia (Kochia scoparia); in assay [12]) were 20%, 20% and 90%, respectively. Besides, the values for the plant injury at 125 g/ha (in the assay with corn (Zea mays); in assay [8]) were 30% and 40%, respectively. Besides, the pest or weed control at 250 g/ha in assay [9] was 0%; in assay [10], 60%; in the assay on rice (Oryra sativa), 0%; in assay [11], 75%. The pest or weed control at 500 g/ha in assay [12] is 100%.
As for `CC(C)c1cccc([C@H]2CN(C)C(=O)[C@@H]2C(=O)Nc2ccc(F)cc2F)c1` [Compound 821], the pest or weed control at 125 g/ha in assay [1] was 90%; in [2] it was 0%; in [3], 70%; in assay [4] it was 50%; in assay [5], 80%; in assay [6] it was 20%. Also, the pest or weed control at 125 g/ha was determined as 0% in [7], 30% in the assay with Kochia (Kochia scoparia) and 90% in [12]. Moreover, the plant injury at 125 g/ha in the assay with corn (Zea mays) was 40%; in assay [8] it was 0%. Moreover, the pest or weed control at 250 g/ha in assay [9] turned out to be 0%; in [10], 60%; with rice (Oryra sativa), 0%; in assay [11] it was 80%. In [12], the pest or weed control at 500 g/ha was 100%.
As for `CN1C[C@H](c2cccc(F)c2)[C@@H](C(=O)Nc2ccccc2F)C1=O` [Compound 822], the pest or weed control at 125 g/ha in assay [1] amounted to 90%; in [2] it was 0%; in assay [3], 0%; in [4], 20%; in [5] it was 90%; in assay [6], 20%. For the same molecule, the pest or weed control at 125 g/ha in [7] came out at 0%; with Kochia (Kochia scoparia), 0%; in assay [12], 90%. In addition, the values for the plant injury at 125 g/ha (in the assay on corn (Zea mays); in assay [8]) were 20% and 0%, respectively. Moreover, the pest or weed control at 250 g/ha in assay [9] was found to be 0%; in assay [10] it was 75%; in the assay on rice (Oryra sativa), 0%; in [11], 85%. The pest or weed control at 500 g/ha in assay [12] was found to be 100%.
With `Cc1c(F)cccc1NC(=O)[C@H]1C(=O)NC[C@@H]1c1cccc(C(F)(F)F)c1` [Compound 826], the pest or weed control at 125 g/ha is 100% in assay [1]; 50% in assay [2]; 80% in [3]; 50% in [4]; 90% in assay [5]; 60% in assay [6]. Moreover, the pest or weed control at 125 g/ha worked out at 30% in assay [7], 30% in the assay on Kochia (Kochia scoparia) and 100% in [12]. Moreover, the values for the plant injury at 125 g/ha (in the assay on corn (Zea mays); in assay [8]) were 80% and 60%, respectively. The pest or weed control at 250 g/ha in [9] came out at 0%; in [10], 65%; with rice (Oryra sativa), 0%; in [11], 100%. Moreover, in [12], the pest or weed control at 500 g/ha is 100%.
Take `Cc1cc(F)ccc1NC(=O)[C@H]1C(=O)NC[C@@H]1c1cccc(C(F)(F)F)c1` [Compound 828]: the pest or weed control at 125 g/ha in assay [1] came to 70%; in [2] it was 0%; in assay [3], 50%; in assay [4] it was 30%; in assay [5], 90%; in assay [6], 20%. Further, the results for the pest or weed control at 125 g/ha (in [7]; with Kochia (Kochia scoparia); in [12]) were 0%, 0% and 90%, respectively. The results for the plant injury at 125 g/ha (in the assay with corn (Zea mays); in assay [8]) were 40% and 20%, respectively. Also, the pest or weed control at 250 g/ha in assay [9] is 0%; in assay [10] it was 0%; in the assay with rice (Oryra sativa), 0%; in assay [11], 30%. Further, the pest or weed control at 500 g/ha in assay [12] worked out at 100%.
With `Cc1c(F)ccc([C@H]2CN(C)C(=O)[C@@H]2C(=O)Nc2ccccc2F)c1F` [Compound 833], the pest or weed control at 125 g/ha stood at 90% in assay [1]; 0% in [2]; 40% in assay [3]; 40% in assay [4]; 90% in [5]; 60% in assay [6]. For the same molecule, the pest or weed control at 125 g/ha in [7] came to 0%; with Kochia (Kochia scoparia), 30%; in [12] it was 90%. The plant injury at 125 g/ha was 20% with corn (Zea mays) and 0% in assay [8]. For the same molecule, the pest or weed control at 250 g/ha turned out to be 0% in [9], 45% in [10], 0% with rice (Oryra sativa) and 85% in assay [11]. For the same molecule, in [12], the pest or weed control at 500 g/ha turned out to be 100%.
Turning to `Cc1c(F)ccc([C@H]2CN(C)C(=O)[C@@H]2C(=O)Nc2ccc(F)c(F)c2F)c1F` [Compound 836], the pest or weed control at 125 g/ha in [1] turned out to be 100%; in assay [2], 0%; in [3], 70%; in assay [4] it was 50%; in assay [5], 90%; in assay [6], 60%. The pest or weed control at 125 g/ha was 30% in assay [7], 50% in the assay on Kochia (Kochia scoparia) and 90% in assay [12]. The plant injury at 125 g/ha in the assay on corn (Zea mays) came out at 70%; in [8], 40%. Besides, the pest or weed control at 250 g/ha is 0% in assay [9], 65% in assay [10], 0% in the assay on rice (Oryra sativa) and 95% in assay [11]. The pest or weed control at 500 g/ha in assay [12] turned out to be 90%.
